Assays:
Assay type in all cases: in vivo
[1] = test system: Spodoptera littoralis; assay: Spodoptera littoralis (Egyptian cotton leaf worm) leaf disc test; conditions: foliar, 72 h, application rate 200 ppm, cotton leaf discs sprayed, L1 larvae, 3 days after infestation, read-out: control (at least one of mortality, anti-feedant effect, growth inhibition)
Outline: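 Five first-instar larvae per disc were placed on dried, sprayed cotton leaf discs held on agar. Test solutions were aqueous, made from 10′000 ppm DMSO stocks. At day 3, control was counted when mortality, feeding deterrence or growth inhibition exceeded the untreated discs.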

[2] = test system: Plutella xylostella; assay: Plutella xylostella (diamond back moth) artificial diet test; conditions: 120 h, application rate 200 ppm, artificial diet, L2 larvae, 5 days after infestation, read-out: control (mortality and growth inhibition)
Experimental: Plutella xylostella (Diamond Back Moth):
(§1) 24-well microtiter plates with artificial diet were treated with aqueous test solutions prepared from 10′000 ppm DMSO stock solutions by pipetting. After drying, the plates were infested with L2 larvae (10 to 15 per well). The samples were assessed for mortality and growth inhibition in comparison to untreated samples 5 days after infestation.

[3] = test system: Diabrotica Balteata; assay: Diabrotica balteata (corn root worm) maize sprout test; conditions: 96 h, application rate 200 ppm, maize sprouts sprayed, L2 larvae, 4 days after infestation, read-out: control (mortality and growth inhibition)
Experimental: Diabrotica Balteata, (Corn Root Worm)
as §1, with “Maize sprouts, placed on an agar layer in 24-well” for “24-well”, “plates” for “plates with artificial diet”, “spraying.” for “pipetting.”, “(6” for “(10”, “10” for “15”, “4” for “5”

[4] = test system: Thrips tabaci; assay: Thrips tabaci (onion thrips) leaf disc test; conditions: foliar, 144 h, application rate 200 ppm, sunflower leaf discs sprayed, mixed ages, 6 days after infestation, read-out: control (mortality)
Experimental: Thrips tabaci (Onion Thrips):
(§2) Sunflower leaf discs were placed on agar in 24-well microtiter plates and sprayed with aqueous test solutions prepared from 10′000 ppm DMSO stock solutions. After drying the leaf discs were infested with a thrips population of mixed ages. The samples were assessed for mortality 6 days after infestation.

[5] = test system: Tetranychus urticae; assay: Tetranychus urticae (two-spotted spider mite) leaf disc test; conditions: foliar, 192 h, application rate 200 ppm, bean leaf discs sprayed, 8 days after infestation, read-out: control (mortality on mixed population, mobile stages)
Experimental: Tetranychus urticae (Two-Spotted Spider Mite):
as §2, with “Bean” for “Sunflower”, “discs” for “discs were placed”, “were” for “and”, “mite” for “thrips”, “on mixed population (mobile stages) 8” for “6”

[6] = test system: Euschistus heros; assay: Euschistus heros (neotropical brown stink bug) soybean leaf test; conditions: 120 h, application rate 200 ppm, soybean leaves sprayed, N2 nymphs, 5 days after infestation, read-out: control (mortality and growth inhibition)
Experimental: Euschistus heros (Neotropical Brown Stink Bug):
Soybean leaves on agar in 24-well microtiter plates were sprayed with aqueous test solutions prepared from 10′000 ppm DMSO stock solutions. After drying the leaves were infested with N2 nymphs. The samples were assessed for mortality and growth inhibition in comparison to untreated samples 5 days after infestation.

[7] = test system: Myzus persicae; assay: Myzus persicae (green peach aphid) leaf disc test; conditions: foliar, 144 h, application rate 200 ppm, sunflower leaf discs sprayed, mixed ages, 6 DAT, read-out: control (mortality)
Experimental: Myzus persicae (Green Peach Aphid):
Sunflower leaf discs were placed on agar in a 24-well microtiter plate and sprayed with test solutions at an application rate of 200 ppm. After drying, the leaf discs were infested with an aphid population of mixed ages. After an incubation period of 6 DAT, samples were checked for mortality.

Cn1nc(OS(=O)(=O)C(F)(C(F)(F)F)C(F)(F)F)c(C(F)(F)F)c1-n1cc(-c2ccc(Cl)c(C(=O)N(C(=O)C(C)(C)C)C3(C#N)CC3)c2)cn1 [Compound 59, [5-[4-[4-chloro-3-[(1-cyanocyclopropyl)-(2,2-dimethylpropanoyl)carbamoyl]phenyl]pyrazol-1-yl]-1-methyl-4-(trifluoromethyl)pyrazol-3-yl] 1,1,1,2,3,3,3-heptafluoropropane-2-sulfonate]
≥ 80%: percent control (mortality, anti-feedant effect or growth inhibition) at 200 ppm [1] | mortality at 200 ppm [2] | mortality at 200 ppm [3] | mortality at 200 ppm [4] | mortality at 200 ppm [5] | mortality at 200 ppm [6] | mortality at 200 ppm [7]

CC(C)C(=O)N(C(=O)c1cc(-c2cnn(-c3c(C(F)(F)F)c(OS(=O)(=O)C(F)(C(F)(F)F)C(F)(F)F)nn3C)c2)ccc1Cl)C1(C#N)CC1 [Compound 60, [5-[4-[4-chloro-3-[(1-cyanocyclopropyl)-(2-methylpropanoyl)carbamoyl]phenyl]pyrazol-1-yl]-1-methyl-4-(trifluoromethyl)pyrazol-3-yl] 1,1,1,2,3,3,3-heptafluoropropane-2-sulfonate]
≥ 80%: percent control (mortality, anti-feedant effect or growth inhibition) at 200 ppm [1] | mortality at 200 ppm [2] | mortality at 200 ppm [3] | mortality at 200 ppm [4] | mortality at 200 ppm [5] | mortality at 200 ppm [6] | mortality at 200 ppm [7]

COCC(=O)N(C(=O)c1cc(-c2cnn(-c3c(C(F)(F)F)c(OS(=O)(=O)C(F)(C(F)(F)F)C(F)(F)F)nn3C)c2)ccc1Cl)C1(C#N)CC1 [Compound 62, [5-[4-[4-chloro-3-[(1-cyanocyclopropyl)-(2-methoxyacetyl)carbamoyl]phenyl]pyrazol-1-yl]-1-methyl-4-(trifluoromethyl)pyrazol-3-yl] 1,1,1,2,3,3,3-heptafluoropropane-2-sulfonate]
≥ 80%: percent control (mortality, anti-feedant effect or growth inhibition) at 200 ppm [1] | mortality at 200 ppm [2] | mortality at 200 ppm [3] | mortality at 200 ppm [4] | mortality at 200 ppm [5] | mortality at 200 ppm [6] | mortality at 200 ppm [7]

Source: patent publication US11071300B2, “Pesticidally active pyrazole derivatives” (SYNGENTA PARTICIPATIONS AG, priority 2017, dated 2021)
